Entries after “also recorded” stand apart in the source; their conditions may differ.
Assays:
[1] = tested on: NZM11 (BRAF V600E) melanoma cells; experiment: FACS uptake of BODIPY FL conjugates, 200 nM, 5 min (Example 2); format: cell-based, human
Experimental: (§1) FIG. 2. Conjugate compounds coupled to BODIPY FL were tested for uptake using 200 nM each conjugate and 5 minute incubation with melanoma cell line NZM11 (BRAF V600E mutant metastatic melanoma), melanoma cell line NZM40 (NRAS Q16H mutant metastatic melanoma) and melanoma cell line NZM9 (BRAF and NRAS wildtype metastatic melanoma). Mean fluorescent intensities (MFI). 2,000 cells (NZM11), 1,000 cells (NZM40) and 500-1,000 cells (NZM9). Cells were sorted by FACS. Bars represent mean±SD. Results were from a single experiment done in triplicate.
Materials and methods: NZM11 is an adherent metastatic melanoma cell which was originally derived from a patient with a subcutaneous lesion on their mid back. This human metastatic melanoma is identified with code CBA-1398 from Cell Bank Australia. […] BRAF is a gene that makes a protein called B-Raf. The gene is involved in sending signals within cells that direct the cell's growth. Around 50% of melanomas bear activating BRAF mutations. In this family of mutations, V600E is the most common, which is a single mutation on codon 600. BRAF mutation is also most common in patients whose tumours arise on skin without chronic sun-induced damage. See Ascierto et al., 2012.
For screening, NZM11, NZM40 and NZM9 cells were suspended at […] dispensed into 96 well plates and left to settle for 48 hours. Then, 10 μL of 10 mM stock solutions in DMSO for the conjugates were diluted with HBSS to afford 400 nM solution. Next, 400 nM compounds and DMSO solutions were diluted 1:1 with MEMα media to afford 200 nM solutions. After 48 hours the media was removed from the 96 well plates and 200 μL of 200 nM conjugates solutions dispensed to each well (in triplicate) and incubated for 5 minutes at 37 °C. After 5 minutes, the media was removed and cells washed with PBS. […] The FACS results output were represented as the mean of the fluorescence intensities (in arbitrary units) measured for cells sorted in every sample.

[2] = tested on: NZM9 (BRAF and NRAS wildtype) melanoma cells; experiment: as above; format: cell-based, human
Experimental: as §1
NZM9 is an adherent cell line which was originally derived from a metastatic melanoma from a patient (from axillary lymph node, source: Cellosaurus database). These cancer cells are BRAF and NRAS wild type. NZM9 present a mutation on gene TP53, which is the most frequent in human cancers, on 179C/T. This gene encodes the synthesis of protein p53 which acts as a tumour suppressor. See Tran et al., 2021; Levine and Owen, 2009; Duffy and Crown, 2021.
For screening, NZM11, NZM40 and NZM9 cells were suspended at […] dispensed into 96 well plates and left to settle for 48 hours. Then, 10 μL of 10 mM stock solutions in DMSO for the conjugates were diluted with HBSS to afford 400 nM solution. Next, 400 nM compounds and DMSO solutions were diluted 1:1 with MEMα media to afford 200 nM solutions. After 48 hours the media was removed from the 96 well plates and 200 μL of 200 nM conjugates solutions dispensed to each well (in triplicate) and incubated for 5 minutes at 37 °C. After 5 minutes, the media was removed and cells washed with PBS. Then, 100 μL of TrypLE trypsin (ThermoFisher Scientific) were added to each well and incubated for 5 minutes at 37 °C after which, 100 μL of MEMα media were added and samples were sorted through FACS biosort. The FACS results output were represented as the mean of the fluorescence intensities (in arbitrary units) measured for cells sorted in every sample.

[3] = tested on: HT29 (colorectal cancer cell line); experiment: FACS uptake of BODIPY FL conjugates (Example 4); format: cell-based, human; settings: 200 nM, 5 min
Experimental: FIG. 4A: Conjugate compounds coupled to BODIPY FL were tested for uptake using 200 nM each conjugate and 5 minute incubation with colorectal cancer cell line HT29. Mean fluorescent intensities (MFI). 1,000 cells were sorted by FACS.
Materials and methods: The HT-29 line was originally isolated from a primary tumour in 1964 from a person. This cell line is positive for expression of N-ras and overexpression of p53 antigen. The human colon adenocarcinoma cell line HT29, is not only used to study the biology of human colon cancers, but it is receiving special interest in studies focused on food digestion and bioavailability due to the ability to express characteristics of mature intestinal cells. The application of this cell line to transport studies of drugs and food compounds is illustrated, especially when the effect of the mucus layer is considered or used as co-culture in combination with Caco-2 cells. These cells have shown a high rate of glucose consumption and therefore, they require high glucose concentration in the medium. Verhoeck et al., 2015.
For these experiments, HT-29 or MEF cells were diluted on αMEM media (supplemented with 10% FBS+1% penicillin-streptomycin) to give a 250 cells/μL suspension of which 200 μL were aliquoted into each well of a 96 well plate followed by incubation for 24 hours. Next, 2 μL of 100 μM stock solutions in DMSO from the conjugates coupled to BODIPY were diluted with 998 μL of αMEM media to give a 200 nM solution. After 24 hour incubation, media was removed and 200 μL of 138 and pantothenic acid/pantothenic acid derivatives coupled to BODIPY 200 nM solutions were added and cells were incubated for 5 minutes at 37 °C. After 5 minutes, the compounds and DMSO solutions were removed and cells were washed with PBS. Then, 100 μL of TrypLE trypsin were added to each well and incubated for 5 minutes at 37 °C. After this time, 100 μL of DMEM media were added to the wells and samples were sorted through FACS biosort. The studies were completed in duplicated wells.

[4] = tested on: HEM (human epidermal melanocytes); experiment: FACS uptake of BODIPY FL conjugates, 50 nM, 5 min (Example 1); format: cell-based; settings: HEM / normal melanocytes
Experimental: FIG. 1. Conjugate compounds coupled to BODIPY FL were tested for uptake using 50 nM each conjugate and 5 minute incubation with HEM (human epidermal melanocytes) and melanoma cell line NZM11 (BRAF V600E mutant metastatic melanoma). Mean fluorescent intensities (MFI). For these tests, n=300-500, mean±SD. Results were from a single experiment done in triplicate. Cells were sorted by FACS.
Materials and methods: NZM11 is an adherent metastatic melanoma cell derived from a patient with a subcutaneous lesion on their mid back. This human metastatic melanoma is identified with code CBA-1398 from Cell bank Australia. […] Cells of NZM11 diluted in MEMα media and cells of HEMnDP (primary melanocyte cell line) diluted in media 254 were left to settle in 96-wells microplate for 48 hours. 10 μL of 10 mM stock solutions in DMSO from 138 and pantothenic acid/pantothenic acid derivatives coupled to BODIPY were diluted with HBSS to afford 100 nM solution. Then, 100 nM compounds and DMSO solutions were diluted 1:1 with MEMα media for NZM11 and media 254 for HEMnDP to afford 50 nM solutions. After the 48 hour settle time, media was removed from the cells and 200 μL of 50 nM media solutions were poured to each well and incubated for 5 minutes at 37 °C. […] The FACS results output represented the mean of the fluorescence intensities (in arbitrary units) measured for cells sorted in every sample

| Compound | uptake (fluorescence intensities) [1] | uptake (fluorescence intensities) [2] | uptake (fluorescent intensities) [3] | higher fluorescence intensities compared to enantiomer 126 [1] | higher fluorescence intensities compared to enantiomer 126 [2] | uptake (fluorescence intensities) [4] |
| --- | --- | --- | --- | --- | --- | --- |
| CC1=CC(C)=[N+]2C1=Cc1ccc(CCCn3cc(CCNC(=O)/C=C/NC(=O)[C@@H]4OC(C)(C)OCC4(C)C)nn3)n1[B-]2(F)F [Compound 125, (R,E)-N-((((3-[4,4-difluoro-5,7-dimethyl-4-bora-3a,4a-diaza-s-indacene-3-yl]propyl)-1H-1,2,3-triazol-4-yl)eth-ylamino)-3-oxoprop-1-enyl)-2,2,5,5-tetramethyl-1,3-dioxane-4-carboxamide] | selective uptake; also recorded: significant uptake | selective uptake; also recorded: significant uptake | moderately higher fluorescent intensities | – | – | – |
| CC1=CC(C)=[N+]2C1=Cc1ccc(CCCn3cc(CCNC(=O)/C=C/NC(=O)[C@H](O)C(C)(C)CO)nn3)n1[B-]2(F)F [Compound 124] | highest intensities; also recorded: best targeting activity | highest intensities; also recorded: best targeting activity | – | 15 fold | 7 times | no significant uptake |
| CC1=CC(C)=[N+]2C1=Cc1ccc(CCCn3cc(CCNC(=O)/C=C\NC(=O)[C@H]4OC(C)(C)OCC4(C)C)nn3)n1[B-]2(F)F [Compound 131, (Z)—N-((((3-[4,4-Difluoro-5,7-dimethyl-4-bora-3a,4a-diaza-s-indacene-3-yl]propyl)-1H-1,2,3-triazol-4-yl)ethylamino)-3-oxoprop-1-enyl)-2,2,5,5-tetramethyl-1,3-dioxane-4-carboxamide] | – | – | higher uptakes than their diol counterparts | – | – | significant uptake |

Reference: US20260364186A1, “Chemical Conjugates, Compositions, and Methods of Preparation and Use Thereof” (Transfection Holdings Limited, priority 2022, published 2026)
